Measurements: patent US7595401B2, “Therapeutic compounds and their use in cancer” (Myriad Pharmaceuticals, Inc., priority 2006, dated 2009)

test system: purified human Hsp90; assay: Binding Assay: fluorescence polarization with BODIPY-labeled geldanamycin; conditions: 5 μM compound, BODIPY-GM 10 nM, Hsp90 30 nM
Description: Compound binding to purified Hsp90 was monitored using BODIPY-labeled geldanamycin (BODIPY-GM) in a fluorescence polarization assay adapted from Kim et al. (Journal of Biomolecular Screening 2004, 9(5):375-381). Compound dilutions (in 100% DMSO) were added to black-bottom 96-well plates (Greiner; 2% DMSO final), and equal volumes of BODIPY-GM (10 nM final) and purified human Hsp90 (Stressgen, SPP-770; 30 nM final) in assay buffer (20 mM HEPES-KOH pH 7.3, 50 mM KCl, 5 mM MgCl2, 20 mM Na2MoO4, 0.01% NP-40, 0.1 mg/mL bovine gamma globulin [Invitrogen, P2045], 2 mM DTT) were added sequentially to yield a final volume of 50 microliters. Plates were incubated overnight at room temperature. Parallel and perpendicular fluorescence measurements were read (LJL BioSystems Analyst AD plate reader) with excitation/emission wavelengths of 485/530 nm. Background fluorescence (buffer only) was subtracted, and fluorescence polarization (FP) values, expressed in mP units, were calculated from parallel and perpendicular fluorescence readings as follows: FP=(parallel−perpendicular)/(parallel+perpendicular)*1000
Percent inhibition was calculated by normalizing the FP values to those obtained in parallel reactions containing DMSO and subtracting these normalized values from 100%. Intrinsic compound fluorescence was independently monitored, and FP data points confounded by compound fluorescence were excluded from the analysis.

| SMILES | % Inhibition at 5 μM Compound Concentration [%] |
| --- | --- |
| CCC(Cn1cnc(N)c2nc(Sc3cc4c(cc3Br)OCO4)nc1-2)c1ccccc1 (centres unmarked) [Example 58, 8-(6-bromo-benzo[1,3]dioxol-5-ylsulfanyl)-3-(2-phenyl-butyl)-3H-purin-6-ylamine] | 8 |
| COc1ccc(C2(Cn3cnc(N)c4nc(Sc5cc6c(cc5Br)OCO6)nc3-4)CC2)cc1 [Example 60, 8-(6-bromo-benzo[1,3]dioxol-5-ylsulfanyl)-3-[1-(4-methoxy-phenyl)-cyclopropylmethyl]-3H-purin-6-ylamine] | 30 |
| COc1ccc(OC)c(Sc2nc3c(N)ncnc3n2CCn2cccc2)c1 [Example 65, 8-(2,5-Dimethoxy-phenylsulfanyl)-9-(2-pyrrol-1-yl-ethyl)-9H-purin-6-ylamine] | 61 |
| COc1ccc(OC)c(Sc2nc3c(N)ncn(CCn4cccc4)c-3n2)c1 [Example 66, 8-(2,5-dimethoxy-phenylsulfanyl)-3-(2-pyrrol-1-yl-ethyl)-3H-purin-6-ylamine] | 5 |
| COc1ccc(OC)c(Sc2nc3c(N)ncnc3n2CCc2cccc3ccccc23)c1 [Example 67, 8-(2,5-Dimethoxy-phenylsulfanyl)-9-(2-naphthalen-1-yl-ethyl)-9H-purin-6-ylamine] | 56 |
| COc1ccc(OC)c(Sc2nc3c(N)ncn(CCc4cccc5ccccc45)c-3n2)c1 [Example 68, 8-(2,5-dimethoxy-phenylsulfanyl)-3-(2-naphthalen-1-yl-ethyl)-3H-purin-6-ylamine] | 0 |
| COc1ccc(OC)c(Sc2nc3c(N)ncnc3n2CCc2ccccc2C)c1 [Example 69, 8-(2,5-Dimethoxy-phenylsulfanyl)-9-(2-o-tolyl-ethyl)-9H-purin-6-ylamine] | 69 |
| COc1ccc(OC)c(Sc2nc3c(N)ncn(CCc4ccccc4C)c-3n2)c1 [Example 70, 8-(2,5-dimethoxy-phenylsulfanyl)-3-(2-o-tolyl-ethyl)-3H-purin-6-ylamine] | 7 |
| COc1ccc(OC)c(Sc2nc3c(N)ncnc3n2CCc2ccc(Br)cc2)c1 [Example 71, 9-[2-(4-Bromo-phenyl)-ethyl]-8-(2,5-dimethoxy-phenylsulfanyl)-9H-purin-6-ylamine] | 41 |
| COc1ccc(OC)c(Sc2nc3c(N)ncn(CCc4ccc(Br)cc4)c-3n2)c1 [Example 72, 3-[2-(4-bromo-phenyl)-ethyl]-8-(2,5-dimethoxy-phenylsulfanyl)-3H-purin-6-ylamine] | 0 |
| COc1ccc(OC)c(Sc2nc3c(N)ncnc3n2CCc2cccc(Cl)c2Cl)c1 [Example 73, 9-[2-(2,3-Dichloro-phenyl)-ethyl]-8-(2,5-dimethoxy-phenylsulfanyl)-9H-purin-6-ylamine] | 2 |
| COc1ccc(OC)c(Sc2nc3c(N)ncn(CCc4cccc(Cl)c4Cl)c-3n2)c1 [Example 74, 3-[2-(2,3-dichloro-phenyl)-ethyl]-8-(2,5-dimethoxy-phenylsulfanyl)-3H-purin-6-ylamine] | 0 |
| COc1ccc(OC)c(Sc2nc3c(N)ncnc3n2CCc2ccc(O)cc2)c1 [Example 76, 4-{2-[6-amino-8-(2,5-dimethoxy-phenylsulfanyl)-purin-9-yl]-ethyl}-phenol] | 6 |
| COc1ccc(OC)c(Sc2nc3c(N)ncn(CCc4cccc(Br)c4)c-3n2)c1 [Example 78, 3-[2-(3-bromo-phenyl)-ethyl]-8-(2,5-dimethoxy-phenylsulfanyl)-3H-purin-6-ylamine] | 17 |
| COc1ccc(OC)c(Sc2nc3c(N)ncn(CCc4cccc(C(F)(F)F)c4)c-3n2)c1 [Example 80, 8-(2,5-dimethoxy-phenylsulfanyl)-3-[2-(3-trifluoromethyl-phenyl)-ethyl]-3H-purin-6-ylamine] | 10 |
| COc1ccc(OC)c(Sc2nc3c(N)ncnc3n2CCc2ccc(C(=O)O)cc2)c1 [Example 81, 4-{2-[6-Amino-8-(2,5-dimethoxy-phenylsulfanyl)-purin-9-yl]-ethyl}-benzoic acid] | 23 |
| COc1ccc(OC)c(Sc2nc3c(N)ncn(CCc4ccc(C(=O)O)cc4)c-3n2)c1 [Example 82, 4-{2-[6-Amino-8-(2,5-dimethoxy-phenylsulfanyl)-purin-3-yl]-ethyl}-benzoic acid] | 5 |
| COc1ccc(OC)c(Sc2nc3c(N)ncn(Cc4ccc(F)cc4)c-3n2)c1 [Example 83, 8-(2,5-Dimethoxy-phenylsulfanyl)-3-(4-fluoro-benzyl)-3H-purin-6-ylamine] | 0 |
| COc1ccc(OC)c(Sc2nc3c(N)ncnc3n2Cc2ccc([N+](=O)[O-])cc2)c1 [Example 84, 8-(2,5-Dimethoxy-phenylsulfanyl)-9-(4-nitro-benzyl)-9H-purin-6-ylamine] | 0 |
| CCC(Cn1c(Sc2cc(OC)ccc2OC)nc2c(N)ncnc21)c1ccccc1 (centres unmarked) [Example 87, 8-(2,5-Dimethoxy-phenylsulfanyl)-9-(2-phenyl-butyl)-9H-purin-6-ylamine] | 12 |
| COc1ccc(OC)c(Sc2nc3c(N)ncn(CCc4cc(OC)c(OC)c(OC)c4)c-3n2)c1 [Example 90, 8-(2,5-Dimethoxy-phenylsulfanyl)-3-[2-(3,4,5-trimethoxy-phenyl)-ethyl]-3H-purin-6-ylamine] | 6 |

same assay, conditions: BODIPY-GM 10 nM, Hsp90 30 nM

| SMILES | IC50 [nM] |
| --- | --- |
| CCC(Cn1c(Sc2cc3c(cc2Br)OCO3)nc2c(N)ncnc21)c1ccccc1 (centres unmarked) [Example 57, 8-(6-Bromo-benzo[1,3]dioxol-5-ylsulfanyl)-9-(2-phenyl-butyl)-9H-purin-6-ylamine] | 400 |
| COc1ccc(C2(Cn3c(Sc4cc5c(cc4Br)OCO5)nc4c(N)ncnc43)CC2)cc1 [Example 59, 8-(6-Bromo-benzo[1,3]dioxol-5-ylsulfanyl)-9-[1-(4-methoxy-phenyl)-cyclopropylmethyl]-9H-purin-6-ylamine] | > 25000 |
| COc1ccc(OC)c(Sc2nc3c(N)ncnc3n2CC2(c3ccc(Cl)cc3)CCC2)c1 [Example 61, 9-[1-(4-Chloro-phenyl)-cyclobutylmethyl]-8-(2,5-dimethoxy-phenylsulfanyl)-9H-purin-6-ylamine] | > 10000 |
| COc1ccc(OC)c(Sc2nc3c(N)ncn(CC4(c5ccc(Cl)cc5)CCC4)c-3n2)c1 [Example 62, 3-[1-(4-chloro-phenyl)-cyclobutylmethyl]-8-(2,5-dimethoxy-phenylsulfanyl)-3H-purin-6-ylamine] | > 10000 |
| COc1ccc(OC)c(Sc2nc3c(N)ncnc3n2CCc2ccc(C(C)=O)cc2)c1 [Example 63, 1-(4-{2-[6-Amino-8-(2,5-dimethoxy-phenylsulfanyl)-purin-9-yl]-ethyl}-phenyl)-ethanone] | > 5000 |
| COc1ccc(OC)c(Sc2nc3c(N)ncn(CCc4ccc(C(C)=O)cc4)c-3n2)c1 [Example 64, 1-(4-{2-[6-amino-8-(2,5-dimethoxy-phenylsulfanyl)-purin-3-yl]-ethyl}-phenyl)-ethanone] | > 5000 |
| COc1ccc(OC)c(Sc2nc3c(N)ncnc3n2CCn2cccc2)c1 [Example 65, 8-(2,5-Dimethoxy-phenylsulfanyl)-9-(2-pyrrol-1-yl-ethyl)-9H-purin-6-ylamine] | 500 |
| COc1ccc(OC)c(Sc2nc3c(N)ncnc3n2CCc2cccc3ccccc23)c1 [Example 67, 8-(2,5-Dimethoxy-phenylsulfanyl)-9-(2-naphthalen-1-yl-ethyl)-9H-purin-6-ylamine] | 1500 |
| COc1ccc(OC)c(Sc2nc3c(N)ncnc3n2CCc2ccccc2C)c1 [Example 69, 8-(2,5-Dimethoxy-phenylsulfanyl)-9-(2-o-tolyl-ethyl)-9H-purin-6-ylamine] | 250 |
| COc1ccc(OC)c(Sc2nc3c(N)ncnc3n2CCc2ccc(Br)cc2)c1 [Example 71, 9-[2-(4-Bromo-phenyl)-ethyl]-8-(2,5-dimethoxy-phenylsulfanyl)-9H-purin-6-ylamine] | > 25000 |
| COc1ccc(OC)c(Sc2nc3c(N)ncnc3n2CCc2cccc(Cl)c2Cl)c1 [Example 73, 9-[2-(2,3-Dichloro-phenyl)-ethyl]-8-(2,5-dimethoxy-phenylsulfanyl)-9H-purin-6-ylamine] | > 3000 |
| COc1ccc(OC)c(Sc2nc3c(N)ncnc3n2CCc2ccc(O)cc2)c1 [Example 75, 4-{2-[6-Amino-8-(2,5-dimethoxy-phenylsulfanyl)-purin-9-yl]-ethyl}-phenol] | 2900 |
| COc1ccc(OC)c(Sc2nc3c(N)ncnc3n2CCc2cccc(Br)c2)c1 [Example 77, 9-[2-(3-Bromo-phenyl)-ethyl]-8-(2,5-dimethoxy-phenylsulfanyl)-9H-purin-6-ylamine] | 1900 |
| COc1ccc(OC)c(Sc2nc3c(N)ncnc3n2CCc2cccc(C(F)(F)F)c2)c1 [Example 79, 8-(2,5-Dimethoxy-phenylsulfanyl)-9-[2-(3-trifluoromethyl-phenyl)-ethyl]-9H-purin-6-ylamine] | 300 |
| COc1ccc(OC)c(Sc2nc3c(N)ncnc3n2Cc2ccc([N+](=O)[O-])cc2)c1 [Example 84, 8-(2,5-Dimethoxy-phenylsulfanyl)-9-(4-nitro-benzyl)-9H-purin-6-ylamine] | > 5000 |
| COc1ccc(OC)c(Sc2nc3c(N)ncnc3n2CCc2ccccc2OC)c1 [Example 85, 8-(2,5-Dimethoxy-phenylsulfanyl)-9-[2-(2-methoxy-phenyl)-ethyl]-9H-purin-6-ylamine] | 360 |
| COc1ccc(OC)c(Sc2nc3c(N)ncn(CCc4ccccc4OC)c-3n2)c1 [Example 86, 8-(2,5-dimethoxy-phenylsulfanyl)-3-[2-(2-methoxy-phenyl)-ethyl]-3H-purin-6-ylamine] | > 5000 |
| CCC(Cn1cnc(N)c2nc(Sc3cc(OC)ccc3OC)nc1-2)c1ccccc1 (centres unmarked) [Example 88] | 1300 |
| COc1ccc(OC)c(Sc2nc3c(N)ncnc3n2CCc2cc(OC)c(OC)c(OC)c2)c1 [Example 89, 8-(2,5-Dimethoxy-phenylsulfanyl)-9-[2-(3,4,5-trimethoxy-phenyl)-ethyl]-9H-purin-6-ylamine] | > 10000 |
| COc1cc(CCn2c(Sc3cc4c(cc3Br)OCO4)nc3c(N)ncnc32)cc(OC)c1OC [Example 91, 8-(6-Bromo-benzo[1,3]dioxol-5-ylsulfanyl)-9-[2-(3,4,5-trimethoxy-phenyl)-ethyl]-9H-purin-6-ylamine] | 200 |
